In EPA's ToxValDB 9.5 (doi:10.2903/j.efsa.2009.189r):

Columns and labels:
Rattus norvegicus = conditions: for LD50: acute, oral, mortality; for NOEL: chronic
Chrysoperla externa = test: LR50; higher = less toxic; conditions: not reported; mortality
Colinus virginianus = conditions: for NOEC: reproduction developmental
Tagia sp. = conditions: acute; duration: 14 days; mortality
Apis mellifera = conditions: acute; duration: 48 hours; oral; unspecified; mortality
Folsomia candida = conditions: chronic/long-term
Canidae = conditions: chronic; duration: 1 years; oral; Dog Other; organ weight
Lepomis macrochirus = conditions: acute; duration: 96 hours; mortality
Mus musculus = conditions: acute; oral; mortality
Pimephales promelas = conditions: chronic/long-term; duration: 359 days; mortality
Anas platyrhynchos = conditions: acute; oral; unspecified; mortality

Row | SMILES | LD50 (Rattus norvegicus) | LR50 (Chrysoperla externa) | LC50 (Colinus virginianus; acute, oral, diet, mortality) | LD50 (Colinus virginianus; acute, oral, mortality) | NOEC (Colinus virginianus) | NOEC (Colinus virginianus; duration: 90 days) | LC50 (Tagia sp.) | LD50 (Apis mellifera) | NOEC (Folsomia candida) | NOAEL (Canidae) | LC50 (Lepomis macrochirus) | LD50 (Mus musculus) | NOEC (Pimephales promelas) | NOEL (Rattus norvegicus; F) | NOEL (Rattus norvegicus; M) | LD50 (Anas platyrhynchos)
1 | NC(=O)c1c(F)cccc1F [Benzamide, 2,6-difluoro-] | 2060 mg/kg-day | – | – | – | – | – | – | – | – | – | – | – | – | – | – | –
2 | O=C(NC(=O)c1c(F)cccc1F)Nc1cc(Cl)c(OC(F)(F)C(F)C(F)(F)F)cc1Cl (configuration not stated) [Lufenuron] | > 2000 mg/kg-day | 0.4 g/ha | 966 mg/kg-day | 2000 mg/kg | 19.7 mg/kg-day | 20000 mg/kg-day | > 1000 mg/kg | > 197 µg/piece | 0.2 mg/kg | 1.5 mg/kg-day | > 29 µg/mL | > 2000 mg/kg-day | 0.02 mg/L | 10.9 mg/kg-day | 8.3 mg/kg-day | 2000 mg/kg
